Assay results: patent publication US20250177349A1, “ARYL ALKYNAMIDE DERIVATIVES” (Astellas Pharma, Inc., priority 2022, published 2025)

tested on: drug-induced Sjogren's syndrome-like salivary dysfunction; test: Test on drug-induced Sjogren's syndrome-like salivary dysfunction in mice; assay type: in vivo; conditions: female C57BL/6J mice, DMXAA 20 mg/kg s.c. four times weekly, test compound orally once a day for 8 days; FIGS. 1-3
Procedure: Female C57BL/6J mice (8-10-weeks-old) were injected subcutaneously with 20 mg/kg of DMXAA or its vehicle, 5% NaHCO3, four times at weekly intervals. From the day after the last DMXAA challenge, mice were orally administered the test compound or its vehicle once a day for 8 days. On the following day, saliva was collected from mice using a cotton swab under awake conditions, and saliva weight during 15 min was measured and evaluated as an indicator of salivary gland function.

SMILES | saliva production (saliva weight during 15 min)
O=C(C#Cc1ccc(-c2ccccc2)c(C(F)(F)F)c1)N1C[C@@H](O)[C@@H](O)C1 [Example 33, 1-[(3R,4S)-3,4-dihydroxypyrrolidin-1-yl]-3-[2-(trifluoromethyl)[1,1′-biphenyl]-4-yl]prop-2-yn-1-one] | significantly improved saliva production
NC(=O)C1CCN(C(=O)C#Cc2ccc(-c3ccccc3)c(C(F)(F)F)c2)CC1 [Example 34, 1-{3-[2-(trifluoromethyl)[1,1′-biphenyl]-4-yl]prop-2-ynoyl}piperidine-4-carboxamide] | significantly improved saliva production
N=S1(=O)CCN(C(=O)C#Cc2ccc(-c3ccccc3)c(C(F)(F)F)c2)CC1 [Example 99, 1-imino-4-{3-[2-(trifluoromethyl)[1,1′-biphenyl]-4-yl]prop-2-ynoyl}-1λ^6-thiomorpholin-1-one] | significantly improved saliva production
